Assay results published in ChEMBL document CHEMBL2057073, “Synthesis and structure-activity relationship studies of 1,3-disubstituted 2-propanols as BACE-1 inhibitors” (Bioorg Med Chem Lett, 2012).

What was measured:
Beta-secretase 1 [1] = target: T1, Beta-secretase 1 (Homo sapiens, UniProt P56817); experiment: Inhibition of BACE1 by FRET assay
Cathepsin D = Cathepsin D (Homo sapiens, UniProt P07339); experiment: Inhibition of cathepsin D by FRET assay
Homo sapiens = species: Homo sapiens; experiment: Selectivity ratio of IC50 for cathepsin D to IC50 for BACE1
Beta-secretase 1 [2] = target: T1, Beta-secretase 1; experiment: Inhibition of BACE1 at 50 uM by FRET assay
Beta-secretase 1 [3] = target: T1, Beta-secretase 1; experiment: Inhibition of BACE1 at 25 uM by FRET assay
Beta-secretase 1 [4] = target: T1, Beta-secretase 1; experiment: Inhibition of BACE1 at 100 uM by FRET assay

Sequence of Cathepsin D (P07339 65-162 limits assumed): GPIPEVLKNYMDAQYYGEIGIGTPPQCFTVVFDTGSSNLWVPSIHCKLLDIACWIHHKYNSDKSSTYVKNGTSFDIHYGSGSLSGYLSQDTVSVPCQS
Sequence of Cathepsin D (P07339 169-412 limits assumed): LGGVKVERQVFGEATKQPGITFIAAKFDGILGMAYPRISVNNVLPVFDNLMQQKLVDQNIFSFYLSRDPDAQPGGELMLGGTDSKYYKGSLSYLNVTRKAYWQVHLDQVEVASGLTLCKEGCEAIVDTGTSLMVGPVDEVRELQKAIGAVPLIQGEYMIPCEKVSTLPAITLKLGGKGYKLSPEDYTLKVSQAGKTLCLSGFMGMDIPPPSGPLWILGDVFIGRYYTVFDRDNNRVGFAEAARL
T1 sequence (P56817 whole entry): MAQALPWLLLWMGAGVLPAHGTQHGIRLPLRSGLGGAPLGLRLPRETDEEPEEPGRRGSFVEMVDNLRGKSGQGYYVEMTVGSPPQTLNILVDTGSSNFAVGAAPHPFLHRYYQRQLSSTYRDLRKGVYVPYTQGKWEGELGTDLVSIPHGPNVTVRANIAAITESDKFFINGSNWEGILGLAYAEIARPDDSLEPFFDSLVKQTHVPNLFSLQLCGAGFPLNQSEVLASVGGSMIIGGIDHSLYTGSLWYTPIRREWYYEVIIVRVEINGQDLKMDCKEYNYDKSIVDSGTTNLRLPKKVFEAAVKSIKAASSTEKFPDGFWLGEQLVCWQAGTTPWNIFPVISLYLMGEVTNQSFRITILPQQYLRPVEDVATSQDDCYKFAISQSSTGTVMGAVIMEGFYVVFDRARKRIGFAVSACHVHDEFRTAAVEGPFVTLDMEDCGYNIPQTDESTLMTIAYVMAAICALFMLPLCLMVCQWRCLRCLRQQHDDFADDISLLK

Row | SMILES | IC50 (Beta-secretase 1 [1]) [µM] | IC50 (Cathepsin D) [µM] | Ratio IC50 (Homo sapiens) | inhibition (Beta-secretase 1 [2]) [%] | inhibition (Beta-secretase 1 [3]) [%] | inhibition (Beta-secretase 1 [4]) [%]
1 | OC(CSc1ccc2ccccc2c1)Cn1c(-c2ccccc2)cc2ccccc21 (stereo not drawn) | 6.66 | > 300 | 50 | – | – | –
2 | OC(CSc1ccccc1F)Cn1c2c(c3ccccc31)CCCC2 (stereo not drawn) | 11 | – | – | 86 | 68 | 95
3 | NCCNC(CSc1ccc2ccccc2c1)Cn1c2ccccc2c2ccccc21 (racemic) | 7.38 | > 300 | – | – | – | –
4 | Oc1ccc(SCC(O)COc2ccc(Cc3ccccc3)cc2)cc1 (stereo not drawn) | 10.7 | – | – | 100 | 85 | 94
5 | CCc1cccc2ccn(CC(O)CSc3ccccc3Cl)c12 (stereo not drawn) | 7.52 | > 300 | – | 87 | 65 | 99
6 | c1ccc2cc(SCCCn3c4ccccc4c4ccccc43)ccc2c1 | 7.52 | > 300 | – | – | – | –
7 | Nc1cccc(SCC(O)Cn2c3ccccc3c3ccccc32)c1 (stereo not drawn) | 36.1 | – | – | 87 | 69 | 100
8 | OC(CSc1ccc2ccccc2c1)Cn1ccc2ccccc21 (stereo not drawn) | 10.5 | – | – | – | – | –
9 | Oc1ccccc1SCC(O)Cn1c(-c2ccccc2)cc2ccccc21 (stereo not drawn) | 25.4 | – | – | 102 | 87 | 86
10 | OC(Cn1c2ccccc2c2ccccc21)Cn1c2ccccc2c2ccccc21 | 0.71 | > 300 | > 422 | – | – | –
11 | OC(CCSc1ccc2ccccc2c1)Cn1c2ccccc2c2ccccc21 (stereo not drawn) | 6.74 | > 300 | – | – | – | –
12 | COc1ccc(SCC(O)Cn2c3c(c4ccccc42)CCCC3)cc1 (stereo not drawn) | 15.2 | – | – | 90 | 58 | 87
13 | OC(CSc1ccc2ccccc2c1)Cn1c2ccccc2c2ccccc21 (stereo not drawn) | 4.93 | > 300 | 50 | 74 | 64 | 76
14 | OC(CSc1ccc2ccccc2c1)C(O)Cn1c2ccccc2c2ccccc21 (stereo not drawn) | 10.1 | – | – | – | – | –
15 | CCc1ccccc1SCC(O)Cn1c(-c2ccccc2)cc2ccccc21 (stereo not drawn) | 10.3 | – | – | 72 | 60 | 80
16 | OC(Cn1c2ccccc2c2ccccc21)C(O)Cn1c2ccccc2c2ccccc21 (stereo not drawn) | 8.82 | > 300 | – | – | – | –
17 | OC(CSc1ccccc1Cl)Cn1c2c(c3ccccc31)CCCC2 (stereo not drawn) | 8.28 | > 300 | – | 99 | 68 | 92
18 | O=C(CSc1ccc2ccccc2c1)Cn1c2ccccc2c2ccccc21 | > 80 | – | – | – | – | –

Row | SMILES | IC50 (Beta-secretase 1 [1]) [µM] | IC50 (Cathepsin D) [µM] | Ratio IC50 (Homo sapiens) | inhibition (Beta-secretase 1 [2]) [%] | inhibition (Beta-secretase 1 [3]) [%] | inhibition (Beta-secretase 1 [4]) [%]
19 | NC(CSc1ccc2ccccc2c1)Cn1c2ccccc2c2ccccc21 (racemic) | 15.7 | – | – | – | – | –
20 | OC(CCn1c2ccccc2c2ccccc21)CSc1ccc2ccccc2c1 (stereo not drawn) | 4.31 | > 300 | – | – | – | –
21 | Cc1c(C)n(CC(O)CSc2ccccc2Cl)c2ccccc12 (stereo not drawn) | – | – | – | 93 | 68 | 100
22 | CCc1ccc(SCC(O)Cn2c(-c3ccccc3)cc3ccccc32)cc1 (stereo not drawn) | – | – | – | 78 | 42 | 79
23 | OC(CSc1ccccc1F)Cn1c2c(c3ccccc31)CCC2 (stereo not drawn) | – | – | – | 82 | 51 | 94
24 | OC(CCn1c2ccccc2c2ccccc21)Cn1c2ccccc2c2ccccc21 (stereo not drawn) | > 100 | – | – | – | – | –
25 | OC(CSc1ccc2ccccc2c1)CSc1ccc2ccccc2c1 | > 30 | – | – | – | – | –
26 | Oc1ccc(SCC(O)Cn2c(-c3ccccc3)cc3ccccc32)cc1 (stereo not drawn) | 13.6 | – | – | 77 | 72 | 86
27 | Cc1ccccc1SCC(O)Cn1c2c(c3ccccc31)CCC2 (stereo not drawn) | 21.4 | – | – | 89 | 73 | 92
28 | Oc1ccccc1SCC(O)COc1ccc(Cc2ccccc2)cc1 (stereo not drawn) | – | – | – | 101 | 90 | 84
29 | c1ccc2cc(SCC(Cn3c4ccccc4c4ccccc43)N3CCNCC3)ccc2c1 (racemic) | > 50 | – | – | – | – | –
30 | O[C@@H](CSc1ccc2ccccc2c1)Cn1c2ccccc2c2ccccc21 | 7.98 | > 300 | – | – | – | –
31 | OC(CSCCCc1ccccc1)Cn1c2c(c3ccccc31)CCC2 (stereo not drawn) | – | – | – | 81 | 53 | 96
32 | Cc1ccc(SCC(O)Cn2c3c(c4ccccc42)CCC3)cc1 (stereo not drawn) | – | – | – | 81 | 55 | 91
33 | OC(CSc1ccccc1F)Cn1c2ccccc2c2ccccc21 (stereo not drawn) | 5.36 | > 300 | – | 84 | 67 | 89
34 | O[C@H](CSc1ccc2ccccc2c1)Cn1c2ccccc2c2ccccc21 | 5.39 | > 300 | – | – | – | –
35 | OC(COc1ccc(Cc2ccccc2)cc1)CSc1ccccc1Cl (stereo not drawn) | 9.6 | > 300 | – | 73 | 62 | 81
